Reference: patent US7659267B2, “1,3-Benzothiazinone derivatives, process for producing the same use thereof” (Takeda Pharmaceutical Company Limited, priority 2002, dated 2010)

What was measured:
[1] = test system: primary cardiomyocytes from newborn rats; assay: Cardiomyocyte apoptosis inhibitory activity (serum-free culture, viable cell number by WST-8); type: cell-based; details: Rattus norvegicus, 96 h, mean of three independent experiments, concentration required to increase the mean viable cell number by 50% vs. no test compound, serum-free Medium 199, 4 days, read-out: Minimum Effective Concentration
Text: Cardiomyocyte Apoptosis Inhibitory Activity
Newborn rats (within 1 day after birth) were obtained from pregnant Wistar rats purchased from Charles River Japan, Inc., anesthetized under ether, and sterilized with 70% ethanol. Then the heart was excised with tweezers. The excised heart was washed with a phosphate buffered saline (T900; manufactured by Takara) and cut into pieces with surgical scissors. The tissue pieces were washed 4 to 5 times with a phosphate buffered saline to remove a majority of blood-derived non-myocardial cells. To the tissue pieces derived from 10 newborns, 5 ml of enzyme solution [solution prepared by dissolving trypsin (1.25 mg)(manufactured by Difco) and collagenase (0.25 mg)(manufactured by Sigma) in phosphate buffered saline (PBS)(1 ml)] was added and the mixture was stirred with a stirrer for 15 minutes while maintaining at 37° C. After 2.5 ml of the enzyme solution was added thereto, the mixture was stirred for further 15 minutes. This procedure was repeated twice. Subsequently, Medium 199 (manufactured by Gibson) containing 10% fetal calf serum (manufactured by Biowiker) was added in a half volume of the enzyme solution to terminate the enzyme reaction. The cells were filtered through a cell strainer (manufactured by Falcon) and then centrifuged at 400×g for 5 minutes to collect the cells.
The cells thus collected from the 10 newborns were suspended in 50 ml of Medium 199 containing 10% fetal calf serum. The suspension was plated onto 100 mm Petri dishes (manufactured by Iwaki) in a volume of 10 ml each/dish and cultured for 1 hour in a CO2 incubator set at 5% CO2 and 37° C. The cells were then recovered, filtered through a cell strainer and centrifuged at 400×g for 5 minutes to collect the primary cardiomyocytes derived from the newborn rats.
Then, the cardiomyocytes from the newborn rats (10) were suspended in 2 ml of hypotonic solution [prepared by dissolving NH4Cl (8.29 g), KHCO3 (1.0 g), 37 mg of EDTA/2Na (disodium ethylenediaminetetraacetate)(manufactured by Dojin Chemical Laboratory) in water (1 L)] and the suspension was allowed to stand for 3 minutes to disrupt erythrocytes. After 10 ml of Medium 199 containing 10% fetal calf serum was added thereto, the mixture was centrifuged at 400×g for 5 minutes to collect the primary cardiomyocytes from newborn rats. The cells were suspended in Medium 199 containing 10% fetal calf serum. The suspension was then filtered through a cell strainer. An aliquot of the resulting cardiomyocyte suspension was taken and 0.3% trypan blue was added thereto. The mixture was mildly mixed and the number of cardiomyocytes was counted with a hemocytometer.
The primary cardiomyocytes from the newborn rats were suspended at a density of 3×10^6 cells/ml in Medium 199 containing 10% fetal calf serum. The suspension was plated onto a 96-well plate in a volume of 0.1 ml/well, followed by incubation in a CO2 incubator set at 5% CO2 and 37° C. for a day. After the plate was stirred with a micromixer (manufactured by Taiyo Kagaku Kogyo), the medium was exchanged 3 times with serum-free Medium 199 and then test compounds were added thereto. The cells were cultured for further 4 days to induce apoptosis. Subsequently, fetal calf serum was added thereto at a concentration of 10%, and the cells were further cultured for about 17 hours in a CO2 incubator set at 5% CO2 and 37° C. The number of viable cells was determined with Cell Counting Kit (manufactured by Dojin Chemical Laboratory) using as a chromogen WST-8 [2-(2-methoxy-4-nitrophenyl)3-(4-nitrophenyl)-5-(2,4-disulfophenyl)-2H-tetrazolium, monosodium salt] to assess the cardiomyocyte apoptosis inhibitory activity.
The experiment described above was triplicated in an independent manner.
In the TABLE, the minimum effective concentration is defined as the concentration of the test compound required to increase the mean viable cell number by 50% as compared to that in the absence of any test compound.

[2] = test system: antioxidant response element (ARE) of rat glutathione S-transferase Ya subunit gene in Rat H9c2 cells; assay: Antioxidant response element (ARE)-dependent transcriptional activation activity (luciferase reporter); type: cell-based; details: concentration causing luminescence of 200% of test compound-free group (100%); H9c2 cells with pGL3-ARE reporter, about 24 hours
Text: Antioxidant Response Element (ARE)-dependent Transcriptional Activation Activity
(1) Construction of Luciferase Reporter Vector Bearing Antioxidant Response Element (ARE)
ARE-containing luciferase reporter vectors pGL3-ARE and pGL3-ARE 694G were constructed based on The Journal of Biological Chemistry, 266, 11632, 1991 and The Journal of Biological Chemistry, 275, 40134, 2000, by synthesizing ARE (SEQ ID NO: 1) for rat glutathione S-transferase Ya subunit gene and mutated ARE, i.e., mutant ARE (A694G)(SEQ ID NO: 2) oligonucleotide and then transfecting them to the NheI/BglII site of pGL3-Promoter Vector (manufactured by Promega Corp.), respectively.
(2) Assay for Antioxidant Response Element (ARE)-dependent Transcriptional Activation Activity
Rat H9c2 cells were suspended in Dulbecco's modified Eagle's medium (10% FBS, D-MEM medium) containing […] heat-inactivated fetal calf serum in 7×10^4 cells/ml. […] After allowing to stand for 30 minutes, fluorescence levels by luciferase were determined using a WALLAC ARVO SX (manufactured by Perkin-Elmer). Taking the emitted luminescence of test compound-free group as 100%, the ARE-dependent transcriptional activation was shown in terms of the concentration of test compound, which caused to emit the luminescence of 200% (EC200: μM).

SMILES | minimal effective concentration [1] [µM] | melting point | EC200 [2] [µM]
CC(=O)Nc1cccc(-c2nc(=O)c3ccccc3s2)c1 [Example 13, N-[3-(4-Oxo-4H-1,3-benzothiazin-2-yl)phenyl]acetamide] | 0.062 |  | 
CC(=O)c1ccc(-c2nc(=O)c3ccccc3s2)cc1 [Example 10, 2-(4-Acetylphenyl)-4H-1,3-benzothiazin-4-one] | 0.062 | 197.5 to 197.6 °C | 
O=c1nc(-c2cccc(C(F)(F)F)c2)sc2ccccc12 [Example 20, 2-(3-Trifluoromethylphenyl)-4H-1,3-benzothiazin-4-one] |  | 114.6 to 114.7 °C | 1.5
CC(C)=C1NC(=O)c2ccccc2S1 [Example 5, 2-Isopropylidene-2,3-dihydro-4H-1,3-benzothiazin-4-one] |  | 187.1 to 188.3 °C | 
O=c1nc(-c2ccc(O)cc2)sc2ccccc12 [Example 12, 2-(4-Hydroxyphenyl)-4H-1,3-benzothiazin-4-one] |  | 275 °C (dec.) | 
O=c1nc(C2CC2)sc2ccccc12 [Example 1, 2-Cyclopropyl-4H-1,3-benzothiazin-4-one] | 0.072 | 119.5 to 119.6 °C | 
O=C(O)CCc1cccc(-c2nc(=O)c3ccccc3s2)c1 [Example 7, 3-[3-(4-Oxo-4H-1,3-benzothiazin-2-yl)phenyl]propionic acid] |  | 179.8 to 180.2 °C | 
O=c1nc(-c2cccc(Br)c2)sc2ccccc12 [Example 11, 2-(3-Bromophenyl)-4H-1,3-benzothiazin-4-one] |  | 161.6 to 161.7 °C | 
CC(=O)Nc1ccc(-c2nc(=O)c3ccccc3s2)cc1 [Example 16, N-[4-(4-Oxo-4H-1,3-benzothiazin-2-yl)phenyl]acetamide] | 0.021 | 231.4 to 231.5 °C | 
O=C1NC(=C2CCCCC2)Sc2ccccc21 [Example 4, 2-Cyclohexylidene-2,3-dihydro-4H-1,3-benzothiazin-4-one] | 0.042 | 145.6 to 147.1 °C | 
COC(=O)C(Cc1cccc(-c2nc(=O)c3ccccc3s2)c1)NC(=O)c1ccccc1 (centres unmarked) [Example 22, Methyl 2-(benzoylamino)-3-[3-(4-oxo-4H-1,3-benzothiazin-2-yl)phenyl]propionate] |  | 130.9 to 131 °C | 
COC(=O)c1cccc(-c2nc(=O)c3ccccc3s2)c1 [Example 21, Methyl 3-(4-oxo-4H-1,3-benzothiazin-2-yl)benzoate] |  | 164.3 to 164.4 °C | 
O=c1nc(-c2ccc(-c3ccccc3)cc2)sc2ccccc12 [Example 18, 2-(1,1′-Biphenyl-4-yl)-4H-1,3-benzothiazin-4-one] | 0.083 |  | 
O=c1nc(-c2ccc(C(F)(F)F)cc2)sc2ccccc12 [Example 9, 2-(4-Trifluoromethylphenyl)-4H-1,3-benzothiazin-4-one] | 0.088 | 122.5 to 122.6 °C | 
O=C1NC(=C2CCCC2)Sc2ccccc21 [Example 3, 2-Cyclopentylidene-2,3-dihydro-4H-1,3-benzothiazin-4-one] | 0.047 | 190.4 to 191.4 °C | 
O=c1nc(-c2ccccc2C(F)(F)F)sc2ccccc12 [Example 19, 2-(2-Trifluoromethylphenyl)-4H-1,3-benzothiazin-4-one] |  | 139.6 to 139.8 °C | 
O=C1NC(=C2CCC2)Sc2ccccc21 [Example 2, 2-Cyclobutylidene-2,3-dihydro-4H-1,3-benzothiazin-4-one] | 0.02 | 146.7 to 149.4 °C | 
N#Cc1cccc(-c2nc(=O)c3ccccc3s2)c1 [Example 8, 2-(3-Cyanophenyl)-4H-1,3-benzothiazin-4-one] | 0.025 | 199.6 to 199.7 °C | 
CCNc1cc(-c2nc(=O)c3ccccc3s2)ccc1C(=O)OC [compound 15, Methyl 2-(ethylamino)-4-(4-oxo-4H-1,3-benzothiazin-2-yl)benzoate] |  | 170.8 to 178.2 °C | 
Cc1cc(Cl)ccc1-c1nc(=O)c2ccccc2s1 [compound 14, 2-(4-Chloro-2-methylphenyl)-4H-1,3-benzothiazin-4-one] |  | 134.1 to 134.2 °C | 
